Each compound was assayed against T1, Mdm2/p53 binding (GST-Mdm2 / His-p53) (Homo sapiens, UniProt Q00987, L33E) (assay: Mdm2/p53 binding assay (HTRF, His-p53 and GST-Mdm2)). Details: His-p53 (aa 1-132) and GST-Mdm2 (aa 25-108, L33E) 6.25 nM each; 25°C, 1 hour; values given as ranges.
T1 construct: Mdm2 partial protein having Mdm2 amino acids at positions 25 to 108
Protocol: A protein dilution containing 6.25 nM each of His-p53 (fusion protein of a p53 partial protein having p53 amino acids at positions 1 to 132, with a histidine protein) and GST-Mdm2 (fusion protein of an Mdm2 partial protein having Mdm2 amino acids at positions 25 to 108 with leucine residue 33 substituted by glutamic acid, with glutathione transferase) proteins was prepared using a protein buffer solution (20 mM HEPES pH 7.4, 150 mM NaCl, 0.1% BSA). This protein dilution was added in an amount of 8 μl/well to a 384-well plate (384-well low volume NBC, Corning Inc., catalog No: 3676).
Next, a test compound was diluted with DMSO to produce a protein buffer solution containing 10% dilution, and this buffer solution was added in an amount of 4 μl/well to the plate.
Subsequently, a solution containing an XL665-labeled anti-His antibody (HTRF monoclonal anti-6HIS antibody labeled with XL665 (catalog No: 61HISXLB), Schering/Cisbio Bioassays) and a europium (Eu)-labeled anti-GST antibody (HTRF monoclonal anti-GST antibody labeled with europium cryptate, Schering/Cisbio Bioassays, catalog No: 61GSTKLB) at concentrations of 2.5 μg/ml and 0.325 μg/ml, respectively, was prepared using an antibody diluting buffer solution (20 mM HEPES pH 7.4, 150 mM NaCl, 0.1% BSA, 0.5 M KF). These dilutions were added in an amount of 8 μl/well (total reaction solution volume: 20 μl/well). Then the plate was incubated at 25° ° C. for 1 hour.
Time-resolved fluorescence at 620 and 665 nm was measured at an excitation wavelength of 320 nm using a plate reader (ARVOsx, PerkinElmer Co., Ltd. or PHERAstar, BMG LABTECH). Ratio (R) was calculated using the measured values (RFU 620 nm and RFU 665 nm) according to the following formula: […]
BI: measured value at 665 nm of reaction solution (only each buffer solution) nonsupplemented with each protein, the compound, and the antibodies
A and D: each measured value at 665 nm and 620 nm of reaction solution supplemented with only Eu-labeled anti-GST antibody solution
The R value calculated from the well supplemented with His-p53, GST-Mdm2, the test compound, and each antibody was defined as R (sample). The R value calculated from the well supplemented with His-p53, GST-Mdm2, and each antibody but without the test compound was defined as R (control). The R value calculated from the well supplemented with GST-Mdm2 the test compound, and each antibody but without His-p53 was defined as R (background). T/C was calculated from the formula shown below. An IC50 value for Mdm2/p53 binding was calculated by sigmoid fitting.

T1 sequence (Q00987 25-108 L33E): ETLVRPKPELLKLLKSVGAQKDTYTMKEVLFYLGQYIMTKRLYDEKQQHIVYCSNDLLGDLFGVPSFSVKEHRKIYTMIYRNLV

Row | SMILES | IC50
1 | CC1(C)CCC2(CC1)N[C@@H](C(=O)N[C@H]1CO[C@H](CO)[C@@H](O)C1)[C@H](c1cccc(Cl)c1F)[C@]21C(=O)Nc2cc(Cl)ccc21 [Example 42, (3′R, 4′S,5′R)-6″-chloro-4′-(3-chloro-2-fluorophenyl)-N-[(3R,5S,6R)-5-hydroxy-6-(hydroxymethyl)tetrahydro-2H-pyran-3-yl]-4,4-dimethyl-2″-oxo-1″,2″-dihydrodispiro[cyclohexane-1,2′-pyrrolidine-3′,3″-indole]-5′-carboxamide] | 0.001 to 0.05 µM
2 | CO[C@H]1C[C@@H](NC(=O)[C@@H]2NC3(CCC(C)(C)CC3)[C@@]3(C(=O)Nc4cc(Cl)ccc43)[C@H]2c2cccc(Cl)c2F)CO[C@@H]1CO [Example 43, (3′R, 4′S,5′R)-6″-chloro-4′-(3-chloro-2-fluorophenyl)-N-[(3R,5S,6R)-6-(hydroxymethyl)-5-methoxytetrahydro-2H-pyran-3-yl]-4,4-dimethyl-2″-oxo-1″,2″-dihydrodispiro[cyclohexane-1,2′-pyrrolidine-3′,3″-indole]-5′-carboxamide] | 0.1 to 0.5 µM
3 | CO[C@H]1C[C@@H](NC(=O)[C@@H]2NC3(CCC(C)(C)CC3)[C@@]3(C(=O)Nc4cc(Cl)ccc43)[C@H]2c2ccnc(Cl)c2F)CO[C@@H]1CO [Example 45, (3′R, 4′S,5′R)-6″-chloro-4′-(2-chloro-3-fluoropyridin-4-yl)-N-[(3R,5S,6R)-6-(hydroxymethyl)-5-methoxytetrahydro-2H-pyran-3-yl]-4,4-dimethyl-2″-oxo-1″,2″-dihydrodispiro[cyclohexane-1,2′-pyrrolidine-3′,3″-indole]-5′-carboxamide] | 0.05 to 0.1 µM
4 | CC1(C)CCC2(CC1)N[C@@H](C(=O)N[C@@H]1CC[C@@H](C(C)(C)O)OC1)[C@H](c1cccc(Cl)c1F)[C@]21C(=O)Nc2cc(Cl)ccc21 [Example 46, (3′R, 4′S,5′R)-6″-chloro-4′-(3-chloro-2-fluorophenyl)-N-[(3R,6S)-6-(1-hydroxy-1-methylethyl)tetrahydro-2H-pyran-3-yl]-4,4-dimethyl-2′-oxo-1″; 2″-dihydrodispiro[cyclohexane-1,2′-pyrrolidine-3′,3″-indole]-5′-carboxamide] | 0.001 to 0.05 µM
5 | CC1(C)CCC2(CC1)N[C@@H](C(=O)N[C@@H]1CC[C@@H](c3nnco3)OC1)[C@H](c1ccnc(Cl)c1F)[C@]21C(=O)Nc2nc(Cl)ccc21 [Example 50, (3′R, 4′S,5′R)-6″-chloro-4′-(2-chloro-3-fluoropyridin-4-yl)-4,4-dimethyl-N-[(3R,6S)-6-(1,3,4-oxadiazol-2-yl)tetrahydro-2H-pyran-3-yl]-2″-oxo-1″,2″-dihydrodispiro[cyclohexane-1,2′-pyrrolidine-3′,3″-pyrrolo[2,3-b]pyridine]-3′-carboxamide] | 0.05 to 0.1 µM
6 | CC1(C)CCC2(CC1)N[C@@H](C(=O)N[C@@H]1CC[C@@H](c3n[nH]c(=O)o3)OC1)[C@H](c1cccc(Cl)c1F)[C@]21C(=O)Nc2nc(Cl)ccc21 [Example 55, (3′R, 4′S,5′R)-6″-chloro-4′-(3-chloro-2-fluorophenyl)-4,4-dimethyl-2″-oxo-N-[(3R,6S)-6-(5-oxo-4,5-dihydro-1,3,4-oxadiazol-2-yl)tetrahydro-2H-pyran-3-yl]-1″,2″-dihydrodispiro[cyclohexane-1,2′-pyrrolidine-3′,3″-pyrrolo[2,3-b]pyridine]-5′-carboxamide] | 0.001 to 0.05 µM
7 | CC1(C)CCC2(CC1)N[C@@H](C(=O)N[C@@H]1CC[C@@H](c3n[nH]c(=O)o3)OC1)[C@H](c1ccnc(Cl)c1)[C@]21C(=O)Nc2cc(Cl)ccc21 [Example 56, (3′R, 4′R, 5′R)-6″-chloro-4′-(2-chloropyridin-4-yl)-4,4-dimethyl-2″-Oxo-N-[(3R,6S)-6-(5-oxo-4,5-dihydro-1,3,4-oxadiazol-2-yl)tetrahydro-2H-pyran-3-yl]-1″,2″-dihydrodispiro[cyclohexane-1,2′-pyrrolidine-3′,3″-indole]-5′-carboxamide] | 0.001 to 0.05 µM

Continued, values first:

Row | IC50 | SMILES
8 | 0.05 to 0.1 µM | CC1(C)CCC2(CC1)N[C@@H](C(=O)N[C@H]1CC[C@](O)(CO)CC1)[C@H](c1ccnc(Cl)c1F)[C@]21C(=O)Nc2cc(Cl)ccc21 [Example 39]
9 | 0.001 to 0.05 µM | CC1(C)CCC2(CC1)N[C@@H](C(=O)N[C@H]1CC[C@H](c3noc(=O)[nH]3)CC1)[C@H](c1ccnc(Cl)c1F)[C@]21C(=O)Nc2cc(Cl)ccc21 [Example 41, (3′R, 4′S,5′R)-6″-chloro-4′-(2-chloro-3-fluoropyridin-4-yl)-4,4-dimethyl-2″-oxo-N-[trans-4-(5-oxo-4,5-dihydro-1,2,4-oxadiazol-3-yl)cyclohexyl]-1″,2″-dihydrodispiro[cyclohexane-1,2′-pyrrolidine-3′,3″-indole]-5′-carboxamide]
10 | 0.001 to 0.05 µM | CC(=O)N(CCO)C[C@@H]1CC[C@@H](NC(=O)[C@@H]2NC3(CCC(C)(C)CC3)[C@@]3(C(=O)Nc4cc(Cl)ccc43)[C@H]2c2ccnc(Cl)c2F)CO1 [Example 44]
11 | 0.001 to 0.05 µM | CC1(C)CCC2(CC1)N[C@@H](C(=O)N[C@H]1CC[C@H](c3noc(=O)[nH]3)CC1)[C@H](c1cccc(Cl)c1F)[C@]21C(=O)Nc2cc(Cl)ccc21 [Example 48, (3′S,4′S,5′R)-6′-chloro-4′-(3-chloro-2-fluorophenyl)-4,4-dimethyl-2″-oxo-N-[trans-4-(5-oxo-4,5-dihydro-1,2,4-oxadiazol-3-yl)cyclohexyl]-1″,2″-dihydrodispiro[cyclohexane-1,2′-pyrrolidine-3′,3″-indole]-5′-carboxamide]
12 | 0.05 to 0.1 µM | CC1(C)CCC2(CC1)N[C@@H](C(=O)N[C@@H]1CC[C@@H](c3nnco3)OC1)[C@H](c1cccc(Cl)c1F)[C@]21C(=O)Nc2nc(Cl)ccc21 [Example 52, (3′R, 4′S,5′R)-6″-chloro-4′-(3-chloro-2-fluorophenyl)-4,4-dimethyl-N-[(3R,6S)-6-(1,3,4-oxadiazol-2-yl)tetrahydro-2H-pyran-3-yl]-2″-oxo-1″,2″-dihydrodispiro[cyclohexane-1,2′-pyrrolidine-3′,3″-pyrrolo[2,3-b]pyridine]-5′-carboxamide]
13 | 0.05 to 0.1 µM | CO[C@H]1C[C@@H](NC(=O)[C@@H]2NC3(CCC(C)(C)CC3)[C@@]3(C(=O)Nc4nc(Cl)ccc43)[C@H]2c2cccc(Cl)c2F)CO[C@@H]1CO [Example 58, (3′R, 4′S,5′R)-6″-chloro-4′-(3-chloro-2-fluorophenyl)-N-[(3R,5S,6R)-6-(hydroxymethyl)-5-methoxytetrahydro-2H-pyran-3-yl]-4,4-dimethyl-2″-oxo-1″,2″-dihydrodispiro[cyclohexane-1,2′-pyrrolidine-3′,3″-pyrrolo[2,3-b]pyridine]-5′-carboxamide]
14 | 0.05 to 0.1 µM | CO[C@H]1C[C@@H](NC(=O)[C@@H]2NC3(CCC(C)(C)CC3)[C@@]3(C(=O)Nc4cc(Cl)ccc43)[C@H]2c2ccnc(Cl)c2)CO[C@@H]1CO [Example 59, (3′R, 4′R, 5′B)-6″-chloro-4′-(2-chloropyridin-4-yl)-N-[(3R,5S,6R)-6-(hydroxymethyl)-5-methoxytetrahydro-2H-pyran-3-yl]-4,4-dimethyl-2″-oxo-1″,2″-dihydrodispiro[cyclohexane-1,2′-pyrrolidine-3′,3″-indole]-5′-carboxamide]
15 | 0.05 to 0.1 µM | COC[C@]1(O)CC[C@@H](NC(=O)[C@@H]2NC3(CCC(C)(C)CC3)[C@@]3(C(=O)Nc4cc(Cl)ccc43)[C@H]2c2ccnc(Cl)c2F)CC1 [Example 61, (3′R, 4′S,5′R)-6″-chloro-4′-(2-chloro-3-fluoropyridin-4-yl)-N-[cis-4-hydroxy-4-(methoxymethyl)cyclohexyl]-4,4-dimethyl-2″-oxo-1″,2″-dihydrodispiro[cyclohexane-1,2′-pyrrolidine-3′,3″-indole]-5′-carboxamide]
16 | 0.05 to 0.1 µM | CC1(C)CCC2(CC1)N[C@@H](C(=O)N[C@@H]1CC[C@@H](c3ncon3)OC1)[C@H](c1cccc(Cl)c1F)[C@]21C(=O)Nc2nc(Cl)ccc21 [Example 62, (3′R, 4′S,5′R)-6″-chloro-4′-(3-chloro-2-fluorophenyl)-4,4-dimethyl-N-[(3R,6S)-6-(1,2,4-oxadiazol-3-yl)tetrahydro-2H-pyran-3-yl]-2″-oxo-1″,2″-dihydrodispiro[cyclohexane-1,2′-pyrrolidine-3′,3″-pyrrolo[2,3-b]pyridine]-5′-carboxamide]
